The source of these data is patent US20070249633A1, “1,2,4-Triazolo[1,5a] Pyrimidines and Use Thereof for Controlling Plant-Pathogenic Fungi” (priority 2004, published 2007).

The structures appear in SMILES notation.

In one test the test system is Alternaria solani. As to the kind of experiment: Activity against early blight of tomato caused by Alternaria solani (protective spray, potted plants). The format is in vivo. The following applies: 250 ppm active compound; tomato cultivar St. Pierre beef tomato; infected next day; assessed after 5 days; untreated plants 80% infected. The protocol: The active compounds were prepared as a stock solution comprising 0.25% by weight of active compound in acetone or dimethyl sulfoxide (DMSO). 1% by weight of the emulsifier Uniperol® EL (wetting agent having emulsifying and dispersing action based on ethoxylated alkylphenols) was added to this solution, and the mixture was diluted with water to the desired concentration. Leaves of potted plants of the cultivar “St. Pierre beef tomato” were sprayed to run off point with an aqueous suspension having the concentration of active compounds stated below. The next day, the leaves were infected with an aqueous zoospore suspension of Alternaria solani in 2% biomalt solution having a density of 0.17×10^6 spores/ml. The plants were then placed in a water-vapor-saturated chamber at temperatures of between 20 and 22° C. After 5 days, the infection on the leaves of the untreated, but infected control plants had developed to such an extent that the infection could be determined visually in %.

Another test has as its system Botrytis cinerea. Description: Activity against gray mold on bell pepper leaves caused by Botrytis cinerea (protective spray, seedlings). It counts as in vivo. The following applies: 250 ppm active compound; bell pepper seedlings Neusiedler Ideal Elite; inoculated next day; assessed after 5 days; untreated plants 90% infected. The method, then: The active compounds were prepared as a stock solution comprising 0.25% by weight of active compound in acetone or dimethyl sulfoxide (DMSO). 1% by weight of the emulsifier Uniperol® EL (wetting agent having emulsifying and dispersing action based on ethoxylated alkylphenols) was added to this solution, and the mixture was diluted with water to the desired concentration.
Bell pepper seedlings of the cultivar “Neusiedler Ideal Elite” were, after 2-3 leaves were well developed, sprayed to runoff point with an aqueous suspension having the concentration of active compound stated below. The next day, the treated plants were inoculated with a spore suspension of Botrytis cinerea which contained 1.7×10^6 spores/ml in a 2% strength aqueous biomalt solution. The test plants were then placed in a climatized chamber at 22-24° C. and high atmospheric humidity. After 5 days, the extent of the fungal infection on the leaves could be determined visually in %.

`CCC(C)Cc1c(-c2ccc([N+](=O)[O-])cc2Cl)c(C)nc2ncnn12` (centres unmarked) [example 1, 5-methyl-6-(2chloro-4-nitrophenyl)-7-(2-methylbutyl)-1,2,4-triazolo[1,5-a]pyrimidine]: the “infection on the leaves determined visually in %” value in the test with Alternaria solani was “less than 5%”. For the same molecule, the “extent of the fungal infection on the leaves determined visually in %” value in the test on Botrytis cinerea is listed as “no infection”.
